Test results published in patent US20170042869A1, “Methods for limiting acute kidney injury” (VANDERBILT UNIVERSITY, priority 2014, published 2017).

Assays:
Format in all cases: in vivo
[1] = tested on: ischemia-reperfusion model of AKI in mice (IR-AKI); test: IR-AKI mice, pyridoxamine pre-treatment, renal fibrosis and injury markers 28 days after injury; conditions: day 28 after injury
Procedure: FIG. 1. Dose dependent effects of pre-treatment with pyridoxamine (PYR) at 500 and 1000 mg/kg/day on renal fibrosis 28 days after I/R-AKI. (A) Experimental model. Mice underwent unilateral renal pedicle clamping (U-IR) followed by contralateral nephrectomy 8 days after the initial surgery. All mice were pre-treated for 3 days with either vehicle control, or PYR 500 and 1000 mg/kg/day in drinking water supplemented with 200 mg PYR twice a day (or vehicle) by oral gavage for 3 days after each surgical procedure.
(§1) Treatment was continued for 28 days at which point mice were sacrificed and kidney harvested for analysis. (B-D) Expression of renal fibrosis markers Col1α1, α-SMA and Col3α1 mRNA relative to Gapdh mRNA control. (E) Quantification of Sirius red stained (% total area). (F) Representative images for Sirius red stained tissues (outer medulla; scale bars, 50 μm). Results expressed as mean +/−SEM, n=9-10 mice per group. Results only indicated if ANOVA p<0.05: *p<0.05, **p<0.01, ***p<0.001, #p<0.0001. Comparison with uninjured controls (no brackets), or vehicle treated mice (brackets).
FIG. 2. Dose dependent effects of pre-treatment with PYR at 500 and 1000 mg/kg/day on markers of renal injury 28 days after UR-AM. Effect of PYR on Kim1 (A) and NGAL (B) mRNA on day 28 after injury. Results expressed as mean +/−SEM, n=9-10 mice per group. Results only indicated if ANOVA p<0.05: *p<0.05, **p<0.01, ***p<0.001, #p<0.0001. Comparison with uninjured controls (no brackets), or vehicle treated mice (brackets).
(§2) Two doses of pyridoxamine were administered orally, 500 mg/kg/day and 1000 mg/kg/day to an experimental model of AM, the surgical, ischemia-reperfusion model of AKI in mice (IR-AKI) [Cianciolo Cosentino et al, 2013; Skrypnyk et al, 2013], a model of renal ischemia that has been used extensively to model ischemic injury associated with cardiac surgery acquired (CSA-AKI) [Thiele et al, 2015]. For the bulk of the studies pyridoxamine was administered for 3 days prior to the induction of AKI and was continued until completion of the studies. In some experiments, pyridoxamine was administered 24 hours after the induction of AM.
The injury models and treatments were administered as illustrated in FIG. 1A. Mice underwent unilateral renal pedicle clamping (LT-IR) followed by contralateral nephrectomy 8 days after the initial surgery. All mice were pre-treated for 3 days with either vehicle control, or PYR 500 and 1000 mg/kg/day in drinking water supplemented with 200 mg PYR twice a day (or vehicle) by oral gavage for 3 days after each surgical procedure. Treatment was continued for 28 days at which point mice were sacrificed and kidneys harvested for analysis.

[2] = Plasma pyridoxamine levels after I/R-AKI; conditions: mice with IR-AKI; for average pyridoxamine plasma levels: 1000 mg/kg/day
Procedure: FIG. 6. Plasma PYR levels after I/R-AKI. (A) Mice underwent U-IR and were pre-treated for 3 days with vehicle control, PYR 500 mg/kg/day or PYR 1000 mg/kg/day in drinking water supplemented with 200 mg PYR twice a day (or vehicle) by oral gavage for 3 days after the surgical procedure. Evaluation of PYR plasma levels on Day 3 after injury. (B) Mice underwent U-IR followed by contralateral nephrectomy 8 days after the initial surgery. All mice were pre-treated with vehicle control, PYR 500 mg/kg/day or 1000 mg/kg/day in drinking water supplemented with 200 mg PYR twice a day (or vehicle) by oral gavage for 3 days after each surgical procedure. Treatment was continued for 28 days at which point mice underwent venesection for analysis of plasma PYR levels. Evaluation of PYR plasma levels on Day 28 after injury. Results expressed as mean +/−SEM, n=9-10 mice per group. Results only indicated if ANOVA p<0.05: *p<0.05, **p<0.01, ***p<0.001, #p<0.0001. Comparison with uninjured controls (no brackets), or vehicle or PYR 500 mg/kg/day treated mice (brackets).

[3] = tested on: ischemia-reperfusion model of AKI in mice (IR-AKI); test: IR-AKI mice, pyridoxamine treatment started 24 hours after injury, renal fibrosis and injury markers at 28 days; conditions: 1000 mg/kg/day started 24 hours after injury, day 28
Procedure: as §1, with “FIG. 3. […] (A) Experimental model. Mice underwent U-IR followed by contralateral nephrectomy 8 days after the initial surgery. Mice were treated with PYR 1000 mg/kg/day starting 24 hours after the initial injury supplemented with 200 mg PYR twice a day (or vehicle) by oral gavage for 3 days after each surgical procedure. Treatment” for “Treatment”, “n=8-10/group.” for “n=9-10 mice per group.”, “Results” for “Results only”, “uninjured” for “uninjured controls”, “or delayed PYR treatment” for “treated mice”
FIG. 4. No effects of treatment with PYR at 1000 mg/kg/day started 24 hours after injury on markers of renal injury 28 days after I/R-AKI. (A, B) Expression of renal injury markers Kim1 and NGAL mRNA relative to Gapdh mRNA control on day 28 after injury. Results expressed as mean +/−SEM, n=8-10/group. Results indicated if ANOVA p<0.05: *p<0.05, **p<0.01, ***p<0.001, #p<0.0001. Comparison with uninjured (no brackets), or vehicle or delayed PYR treatment (brackets).
as §2
To determine whether delayed treatment with the high dose of pyridoxamine was effective in reducing post-injury fibrosis after IR-AKI, mice were treated with PYR 1000 mg/kg/day starting 24 hours after the initial injury supplemented with 200 mg PYR twice a day (or vehicle) by oral gavage for 3 days after each surgical procedure. Treatment was continued for 28 days at which point mice were sacrificed and kidney harvested for analysis (FIG. 3A).

[4] = tested on: ischemia-reperfusion model of AKI in mice (IR-AKI); test: IR-AKI mice, pyridoxamine pre-treatment, renal injury and oxidative stress 3 days after injury; conditions: pre-treatment 1000 mg/kg/day, day 3 after injury, vs vehicle
Procedure: FIG. 5. Dose dependent effect of pre-treatment with PYR at 500 and 1000 mg/kg/day on renal injury 3 days after I/R-AKI. (A) Experimental model, Mice underwent U-IR and were pre-treated for 3 days with either vehicle control, PYR 500 mg/kg/day or PYR 1000 mg/kg/day in drinking water supplemented with 200 mg PYR twice a day (or vehicle) by oral gavage for 3 days after the surgical procedure. Mice were sacrificed and kidney harvested for analysis 3 days after the initial injury. (B, C) Renal Kim1 and NGAL mRNA expression 3 days after injury expressed as the ratio to Gapdh mRNA control. (D) Tubular injury score 3 days after injury in the OM (0-4, arbitrary units). (E) Representative images for PAS stained tissues (outer medulla; scale bars, 50 μm) F) Expression renal isofuran/isoprostane ratios after
PYR treatment with 500 and 1000 mg/kg/day 3 days after LI-IR. Results expressed as mean +/−SEM, n=9-10 mice per group. Results only indicated if ANOVA p<0.05: *p<0.05, **p<0.01, ***p<0.001, #p<0.0001. Comparison with uninjured (no brackets), or vehicle or PYR 500 mg/kalday treated mice (brackets).
as §2
To determine whether there was also a dose-dependent effect of pyridoxamine at 500 and 1000 mg/kg/day on early renal injury after IR-AKI, mice were sacrificed on day 3 after injury (FIG. 5A) to evaluate renal injury and renal oxidative stress levels.

[5] = pre-treatment 500 and 1000 mg/kg/day oral, kidney, vs vehicle

In the case of Cc1ncc(CO)c(CN)c1O [pyridoxamine], the “expression of pro-fibrotic gene Col1α1 mRNA” value [1, 5] is reported as “lowered expression”, the “expression of pro-fibrotic gene Col3α1 mRNA” value [1, 5] is reported as “lowered expression” and the “expression of pro-fibrotic gene αSMA mRNA” value [1, 5] is reported as “lowered expression”. For the same compound, the “level of fibrosis (Sirius red staining)” value [1, 5] was “decreased level of fibrosis”, the “expression of renal injury marker Kim1” value ([1]; pre-treatment 500 and 1000 mg/kg/day) was “lowered expression” and the “average pyridoxamine plasma levels” value ([2]; day 3) was ~6 µg/mL. For the same compound, the “average pyridoxamine plasma levels” value ([2]; day 28) was ~6 µg/mL, the “plasma pyridoxamine levels, dose dependence” value ([2]; 500 vs 1000 mg/kg/day, days 3 and 28) was “dose-dependent increase” and the “expression of injury marker Kim1” value [3] was “did not lower expression”. For the same compound, the “expression of injury marker NGAL” value [3] was “did not lower expression”, the “expression of pro-fibrotic gene Col3α1 mRNA” value [3] was “lowered expression” and the “expression of pro-fibrotic gene αSMA mRNA” value [3] was “lowered expression”. For the same compound, the “post-injury fibrosis (Sirius red staining)” value [3] was “decreased post-injury fibrosis”, the “expression of injury marker Kim1” value ([3]; listed as PYR) was “No effects” and the “expression of injury marker NGAL” value ([3]; listed as PYR) was “No effects”. For the same compound, the “post-injury fibrosis (Sirius red staining)” value ([3]; listed as PYR) was “Beneficial effects”, the “histological tubular injury scores” value ([4]; outer medulla) was “reduction” and the “renal NGAL mRNA expression” value [4] was “significant, dose-dependent decrease”. The “renal levels of oxidative stress marker isofuran-to-isoprostane ratio” value [4] was “reduction”.
